How the values were obtained:
[1] = system: Transglutaminase 3 (TGM3) transcripts; experiment: Expression of TGM3 transcripts in keratinocytes (RT-qPCR); assay type: cell-based; details: human epidermic keratinocytes, 24 hours, compound at 15 μm; for TGM3 transcript expression, fold change (fc) compared to control: normalized to RPL13A and GAPDH, N=3
Procedure: (§1) The influence of the compounds (A′) and (F), in particular obtained according to the process indicated above, on the renewal of the epidermis and on the barrier effect of the skin was evaluated in vitro by measuring the expression of TGM1 and TGM3 transcripts in keratinocytes.
(§2) Human epidermic keratinocytes were incubated for 24 hours in the presence or not (control) of compound (A′) or (F). At the end of the incubation, total RNAs were extracted and quantified. The expression of TGM1 and TGM3 transcripts was then measured using a two-step RT-qPCR method with a LightCycler® device according to the technique of incorporation of SYBR®Green (Qiagen). The expression of these transcripts was normalized with the expression of two housekeeping genes, RPL13A and GAPDH. The experiments were reproduced 3 times (N=3).
(§3) The results are given in Table (VI) below, fold change (fc) compared to control.

[2] = system: Transglutaminase 1 (TGM1) transcripts; experiment: Expression of TGM1 transcripts in keratinocytes (RT-qPCR); assay type: cell-based; details: human epidermic keratinocytes, 24 hours, compound at 15 μm; for TGM1 transcript expression, fold change (fc) compared to control: normalized to RPL13A and GAPDH, N=3
Procedure: as §1, §2, §3

laminin-5 = experiment: Ex vivo immunolabelling of laminin-5 in skin explants; parameters: species or system human; details: topical 2 mg per explant, compound (F) 5% in water, LHA 5% in ethanol, symbols proportional
Procedure: (§4) The anti-ageing effect of the compound (F), in particular obtained according to the process indicated above, at 5% in water, was evaluated ex vivo by immunolabelling of the proteins collagen III, membrane transglutaminase (MTG), filaggrin and laminin-5, in comparison with LHA (lipohydroxy acid, 2-hydroxy-5-octanoylbenzoic acid) at 5% in ethanol.
(§5) 111 explants with a diameter of approximately 10 mm were prepared from abdominal plastic surgery on a person. These explants were kept alive.
(§6) On day […], the explants were placed on a grid in 2 ml of culture medium. […]
(§7) At D0, D6 and D11, the explants were sampled from the culture medium and cut in two. […] The labellings were evaluated by a microscopic examination. […]
(§8) The microscopic observations were carried out in optical microscopy and fluorescence microscopy, using a Leica microscope of Orthoplan or DMLB type. […]
Immunolabelling of Laminin-5 The labelling of laminin-5 was carried out on frozen sections with a monoclonal antibody, clone P3E4 (Santa Cruz sc-13587), at 1/300th, for 30 minutes at ambient temperature with a biotin/streptavidin amplifying system, visualized in FITC (Caltag sa1001). […] The labelling was evaluated by a microscopic examination. […]
The results obtained with the compound (F) and LHA are assessed, at equivalent date, by comparison with the results obtained in the absence of treatment (control test). […]

[3] = system: membrane transglutaminase (MTG); experiment: Ex vivo immunolabelling of membrane transglutaminase (MTG) in skin explants; parameters: species or system human; details: topical 2 mg per explant, compound (F) 5% in water, LHA 5% in ethanol, symbols proportional
Procedure: as §4, §5, §6, §7, §8
Membrane transglutaminase was labelled on frozen sections with a monoclonal antibody, clone B.C1 (Harbor Bio Product ref. 5003), at 1/100th, for 2 h at ambient temperature with a Vectastain RTU Universal, Vector, avidin/biotin amplifying system and visualized in FITC. […] The labelling was evaluated by a microscopic examination. […]
The results obtained with the compound (F) and […] are assessed, at equivalent date, by comparison with the results obtained in the absence of treatment (control test). […]

Structure (SMILES) | Stimulation of the expression of TGM3 transcripts (class in words) [1] | TGM3 transcript expression, fold change (fc) compared to control [1] | Stimulation of the expression of TGM1 transcripts (class in words) [2] | TGM1 transcript expression, fold change (fc) compared to control [2] | Laminin-5 expression level, difference in comparison with the control at D11 (laminin-5) | MTG expression level, difference in comparison with the control at D6 [3]
CCCCCCCCCCCCCCCc1cccc(O)c1C(=O)O [Compound (A′), 6-peritadecylsalicylic acid] | strong stimulation | 20 fc | strong stimulation | 6.0 fc | – | –
CCCCCCCCCCCCCCCc1cccc(O)c1C(=O)O [Compound (F)] | good stimulation | 3.0 fc | average stimulation | 1.7 fc | No variation | No variation
CCCCCCCC(=O)c1ccc(O)c(C(=O)O)c1 [LHA, 2-hydroxy-5-octanoylbenzoic acid, reference compound] | – | – | – | – | No variation | –

From US20170266089A1, “USE OF LIPOPHILIC SALICYLIC ACID DERIVATIVES” (L'OREAL, priority 2014, published 2017)
